The numbers were not newly measured in patent US11033592B2, “Composition for the prevention and/or treatment of cardiovascular diseases” (priority 2016, dated 2021), which cites them from elsewhere.

Structures are written as SMILES.

For this series, the system named is first occurrence of cardiovascular events. As to conditions: CRESTOR 20 mg versus placebo, P<0.00001.

As for `CC(C)c1nc(N(C)S(C)(=O)=O)nc(-c2ccc(F)cc2)c1/C=C/[C@@H](O)C[C@@H](O)CC(=O)O` [CRESTOR, rosuvastatin], the “relative reduction in risk of a major cardiovascular event” value was 44%.
